Literature values, collected in US20050058670A1, “Oral itraconazole composition which is not affected by ingested food and process for preparing same” (priority 2003, published 2005).

solubility in water: less than 1 μg/ml
SMILES: CCC(C)n1ncn(-c2ccc(N3CCN(c4ccc(OCC5COC(Cn6cncn6)(c6ccc(Cl)cc6Cl)O5)cc4)CC3)cc2)c1=O (stereo not shown) [Itraconazole]
